{
  "source": "patent US20220281848A1",
  "about": "“PYRAZOLE-SUBSTITUTED PYRROLIDINONES AS HERBICIDES” (FMC Corporation, priority 2019, published 2022)",
  "system": "plants",
  "assay": "Test D pre-emergence, other plants of Tables D1 and D3",
  "type": "in vivo",
  "conditions": "pre-emergence, 100=total damage, 0=no damage",
  "method": "A formulation containing 50 g/L of the test chemical was prepared by dissolving the active ingredient in a mixture of organic solvents and emulsifier, details of which are provided in the table. This formulation was then mixed with a small, variable amount of acetone to aid dissolution, before addition of a 0.2% v/v aqueous solution of an adjuvant, as the aqueous diluent, to form an aqueous spray solution which contains a predetermined concentration of the active ingredient.\nThis aqueous spray solution was then sprayed onto plants including maize and wheat that had been seed treated with a herbicide safener, after one day's cultivation (for pre-emergence) or after about 12 days' cultivation (for post-emergence). The plants were grown from seeds sown in standard soil, placed in a glasshouse under controlled conditions (at 24/18° C. or 20/16° C., day/night; 16 h light; 65% humidity). After spray application the plants were then grown in a glasshouse under the same conditions and watered twice daily. After 15 d for post-emergence and 20 DAA for pre-emergence the test was evaluated (100=total damage to plant; 0=no damage to plant).",
  "data": [
    {"molecule": "COc1c(F)cccc1NC(=O)C1C(=O)N(C)CC1c1cc(C(F)(F)F)n(C)n1", "note": "(racemic) [Compound 18]", "values": [
      {"measurement": "damage to plant, ALOMY", "setting": "rate 15, 20 DAA", "value": 0},
      {"measurement": "damage to plant, AVEFA", "setting": "rate 15, 20 DAA", "value": 0},
      {"measurement": "damage to plant, BEAVA", "setting": "rate 15, 20 DAA", "value": 0},
      {"measurement": "damage to plant, BROTE", "setting": "rate 15, 20 DAA", "value": 0},
      {"measurement": "damage to plant, BRSNN", "setting": "rate 15, 20 DAA", "value": 0},
      {"measurement": "damage to plant, CHEAL", "setting": "rate 15, 20 DAA", "value": 0},
      {"measurement": "damage to plant, GALAP", "setting": "rate 15, 20 DAA", "value": 0},
      {"measurement": "damage to plant, HORVW", "setting": "rate 15, 20 DAA", "value": 0},
      {"measurement": "damage to plant, KCHSC", "setting": "rate 15, 20 DAA", "value": 0},
      {"measurement": "damage to plant, LOLPE", "setting": "rate 15, 20 DAA", "value": 0},
      {"measurement": "damage to plant, POAAN", "setting": "rate 15, 20 DAA", "value": 0},
      {"measurement": "damage to plant, POLCO", "setting": "rate 15, 20 DAA", "value": 0},
      {"measurement": "damage to plant, SINAR", "setting": "rate 15, 20 DAA", "value": 0},
      {"measurement": "damage to plant, STEME", "setting": "rate 15, 20 DAA", "value": 0},
      {"measurement": "damage to plant, VERPE", "setting": "rate 15, 20 DAA", "value": 0},
      {"measurement": "damage to plant, ALOMY", "setting": "rate 30, 20 DAA", "value": 0},
      {"measurement": "damage to plant, AVEFA", "setting": "rate 30, 20 DAA", "value": 0},
      {"measurement": "damage to plant, BEAVA", "setting": "rate 30, 20 DAA", "value": 0},
      {"measurement": "damage to plant, BROTE", "setting": "rate 30, 20 DAA", "value": 0},
      {"measurement": "damage to plant, BRSNN", "setting": "rate 30, 20 DAA", "value": 0},
      {"measurement": "damage to plant, CHEAL", "setting": "rate 30, 20 DAA", "value": 0},
      {"measurement": "damage to plant, GALAP", "setting": "rate 30, 20 DAA", "value": 0},
      {"measurement": "damage to plant, HORVW", "setting": "rate 30, 20 DAA", "value": 0},
      {"measurement": "damage to plant, KCHSC", "setting": "rate 30, 20 DAA", "value": 0},
      {"measurement": "damage to plant, LOLPE", "setting": "rate 30, 20 DAA", "value": 0},
      {"measurement": "damage to plant, POAAN", "setting": "rate 30, 20 DAA", "value": 0},
      {"measurement": "damage to plant, POLCO", "setting": "rate 30, 20 DAA", "value": 0},
      {"measurement": "damage to plant, SINAR", "setting": "rate 30, 20 DAA", "value": 0},
      {"measurement": "damage to plant, STEME", "setting": "rate 30, 20 DAA", "value": 0},
      {"measurement": "damage to plant, VERPE", "setting": "rate 30, 20 DAA", "value": 0},
      {"measurement": "damage to plant, ALOMY", "setting": "rate 60, 20 DAA", "value": 0},
      {"measurement": "damage to plant, AVEFA", "setting": "rate 60, 20 DAA", "value": 0},
      {"measurement": "damage to plant, BEAVA", "setting": "rate 60, 20 DAA", "value": 0},
      {"measurement": "damage to plant, BROTE", "setting": "rate 60, 20 DAA", "value": 0},
      {"measurement": "damage to plant, BRSNN", "setting": "rate 60, 20 DAA", "value": 0},
      {"measurement": "damage to plant, CHEAL", "setting": "rate 60, 20 DAA", "value": 0},
      {"measurement": "damage to plant, GALAP", "setting": "rate 60, 20 DAA", "value": 0},
      {"measurement": "damage to plant, HORVW", "setting": "rate 60, 20 DAA", "value": 0},
      {"measurement": "damage to plant, KCHSC", "setting": "rate 60, 20 DAA", "value": 0},
      {"measurement": "damage to plant, LOLPE", "setting": "rate 60, 20 DAA", "value": 10},
      {"measurement": "damage to plant, POAAN", "setting": "rate 60, 20 DAA", "value": 40},
      {"measurement": "damage to plant, POLCO", "setting": "rate 60, 20 DAA", "value": 0},
      {"measurement": "damage to plant, SINAR", "setting": "rate 60, 20 DAA", "value": 0},
      {"measurement": "damage to plant, STEME", "setting": "rate 60, 20 DAA", "value": 0},
      {"measurement": "damage to plant, VERPE", "setting": "rate 60, 20 DAA", "value": 10},
      {"measurement": "damage to plant, ALOMY", "setting": "rate 130, 20 DAA", "value": 0},
      {"measurement": "damage to plant, AVEFA", "setting": "rate 130, 20 DAA", "value": 0},
      {"measurement": "damage to plant, BEAVA", "setting": "rate 130, 20 DAA", "value": 0},
      {"measurement": "damage to plant, BROTE", "setting": "rate 130, 20 DAA", "value": 10},
      {"measurement": "damage to plant, BRSNN", "setting": "rate 130, 20 DAA", "value": 0},
      {"measurement": "damage to plant, CHEAL", "setting": "rate 130, 20 DAA", "value": 20},
      {"measurement": "damage to plant, GALAP", "setting": "rate 130, 20 DAA", "value": 10},
      {"measurement": "damage to plant, HORVW", "setting": "rate 130, 20 DAA", "value": 0},
      {"measurement": "damage to plant, KCHSC", "setting": "rate 130, 20 DAA", "value": 0},
      {"measurement": "damage to plant, LOLPE", "setting": "rate 130, 20 DAA", "value": 20},
      {"measurement": "damage to plant, POAAN", "setting": "rate 130, 20 DAA", "value": 60},
      {"measurement": "damage to plant, POLCO", "setting": "rate 130, 20 DAA", "value": 0},
      {"measurement": "damage to plant, SINAR", "setting": "rate 130, 20 DAA", "value": 0},
      {"measurement": "damage to plant, STEME", "setting": "rate 130, 20 DAA", "value": 10},
      {"measurement": "damage to plant, VERPE", "setting": "rate 130, 20 DAA", "value": 20},
      {"measurement": "damage to plant, ALOMY", "setting": "rate 250, 20 DAA", "value": 30},
      {"measurement": "damage to plant, AVEFA", "setting": "rate 250, 20 DAA", "value": 30},
      {"measurement": "damage to plant, BEAVA", "setting": "rate 250, 20 DAA", "value": 0},
      {"measurement": "damage to plant, BROTE", "setting": "rate 250, 20 DAA", "value": 30},
      {"measurement": "damage to plant, BRSNN", "setting": "rate 250, 20 DAA", "value": 10},
      {"measurement": "damage to plant, CHEAL", "setting": "rate 250, 20 DAA", "value": 20},
      {"measurement": "damage to plant, GALAP", "setting": "rate 250, 20 DAA", "value": 30},
      {"measurement": "damage to plant, HORVW", "setting": "rate 250, 20 DAA", "value": 0},
      {"measurement": "damage to plant, KCHSC", "setting": "rate 250, 20 DAA", "value": 0},
      {"measurement": "damage to plant, LOLPE", "setting": "rate 250, 20 DAA", "value": 50},
      {"measurement": "damage to plant, POAAN", "setting": "rate 250, 20 DAA", "value": 70},
      {"measurement": "damage to plant, POLCO", "setting": "rate 250, 20 DAA", "value": 0},
      {"measurement": "damage to plant, SINAR", "setting": "rate 250, 20 DAA", "value": 0},
      {"measurement": "damage to plant, STEME", "setting": "rate 250, 20 DAA", "value": 20},
      {"measurement": "damage to plant, VERPE", "setting": "rate 250, 20 DAA", "value": 60},
      {"measurement": "damage to plant, ALOMY", "setting": "rate 500, 20 DAA", "value": 60},
      {"measurement": "damage to plant, AVEFA", "setting": "rate 500, 20 DAA", "value": 40},
      {"measurement": "damage to plant, BEAVA", "setting": "rate 500, 20 DAA", "value": 0},
      {"measurement": "damage to plant, BROTE", "setting": "rate 500, 20 DAA", "value": 40},
      {"measurement": "damage to plant, BRSNN", "setting": "rate 500, 20 DAA", "value": 20},
      {"measurement": "damage to plant, CHEAL", "setting": "rate 500, 20 DAA", "value": 30},
      {"measurement": "damage to plant, GALAP", "setting": "rate 500, 20 DAA", "value": 20},
      {"measurement": "damage to plant, HORVW", "setting": "rate 500, 20 DAA", "value": 40},
      {"measurement": "damage to plant, KCHSC", "setting": "rate 500, 20 DAA", "value": 0},
      {"measurement": "damage to plant, LOLPE", "setting": "rate 500, 20 DAA", "value": 70},
      {"measurement": "damage to plant, POAAN", "setting": "rate 500, 20 DAA", "value": 90},
      {"measurement": "damage to plant, POLCO", "setting": "rate 500, 20 DAA", "value": 0},
      {"measurement": "damage to plant, SINAR", "setting": "rate 500, 20 DAA", "value": 10},
      {"measurement": "damage to plant, STEME", "setting": "rate 500, 20 DAA", "value": 10},
      {"measurement": "damage to plant, VERPE", "setting": "rate 500, 20 DAA", "value": 50}
    ]}
  ]
}
